Test results taken from the supplement of paper PMC10307832.

Columns and labels:
Experiment in all cases: relative viability (nuclei count vs DMSO), 5 days (fraction); higher = more cells survive
[1] = compound: O=C(NC1CCNCC1)c1n[nH]cc1NC(=O)c1c(Cl)cccc1Cl [AT-7519] + C[C@]1(O)C[C@@H](c2nc(-c3ccc4ccc(-c5ccccc5)nc4c3)c3c(N)nccn32)C1 [Linsitinib] (partner 1 µM)
Outline: (§1)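 Each reported value is a median over duplicate plates. It expresses relative viability: treated-well nuclei count divided by vehicle-well nuclei count. Lung cancer cell lines in 1536-well plates were dosed by pin tool a day after seeding, alone with one drug or with a fixed anchor-drug dose plus five library-drug doses (not always all listed) in √10 steps, and nuclei were counted after 5 days.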

[2] = compound: O=C(NC1CCNCC1)c1n[nH]cc1NC(=O)c1c(Cl)cccc1Cl [AT-7519] + Nc1ncn([C@H]2C[C@H](O)[C@@H](CO)O2)c(=O)n1 [Decitabine] (partner 2 µM)
Outline: as §1

[3] = compound: O=C(NC1CCNCC1)c1n[nH]cc1NC(=O)c1c(Cl)cccc1Cl [AT-7519] + CC(=O)Nc1cccc(-n2c(=O)n(C3CC3)c(=O)c3c(Nc4ccc(I)cc4F)n(C)c(=O)c(C)c32)c1 [Trametinib] (partner 0.02 µM)
Outline: as §1

[4] = compound: C1=CC2=C(C=C(C(=C2N=C1)O)N=NC3=CC4=C(C=C3)C=C(C=C4)S(=O)(=O)O)S(=O)(=O)O + CCNC(=O)c1noc(-c2cc(C(C)C)c(O)cc2O)c1-c1ccc(CN2CCOCC2)cc1 [Luminespib] (partner 0.01 µM)
Outline: as §1

Cell Line	relative viability ([1]; first compound 0.01 µM)	relative viability ([1]; first compound 0.03162 µM)	relative viability ([1]; first compound 0.3162 µM)	relative viability ([1]; first compound 1 µM)	relative viability ([2]; first compound 0.01 µM)	relative viability ([2]; first compound 0.03162 µM)	relative viability ([2]; first compound 0.3162 µM)	relative viability ([2]; first compound 1 µM)	relative viability ([3]; first compound 0.01 µM)	relative viability ([3]; first compound 0.03162 µM)	relative viability ([3]; first compound 0.3162 µM)	relative viability ([3]; first compound 1 µM)	relative viability ([4]; first compound 0.08 µM)	relative viability ([4]; first compound 0.253 µM)	relative viability ([4]; first compound 0.8 µM)	relative viability ([4]; first compound 2.53 µM)	relative viability ([4]; first compound 8 µM)
NCI-H520	1.01	0.88	0.82	0.454	0.547	0.492	0.507	0.395	0.741	0.494	0.673	0.229	0.237	0.218	0.237	0.225	0.231
NCI-H596	1.04	0.91	0.973	0.897	0.939	0.967	0.789	1.16	0.86	0.811	0.662	0.662	1.16	1.09	1.05	1.11	0.832
NCI-H647	0.982	1.13	1.38	0.48	0.379	0.37	0.416	0.237	0.439	0.342	0.475	0.159	0.138	0.241	0.215	0.276	0.135
NCI-H650	0.854	0.791	1.04	0.693	0.387	0.281	0.335	0.274	1.02	0.924	1.04	0.348	0.876	0.874	0.691	0.889	0.76
NCI-H661	0.46	0.513	0.538	0.343	0.568	0.538	0.534	0.254	0.549	0.565	0.508	0.203	0.932	0.887	0.847	0.945	0.849
NCI-H727	0.287	0.309	0.163	0.167	0.927	0.746	0.874	0.509	0.34	0.414	0.37	0.384	0.478	0.45	0.327	0.346	0.359
NCI-H838	1.03	1.01	0.74	0.149	0.479	0.45	0.383	0.152	0.475	0.443	0.529	0.0788	0.294	0.281	0.267	0.24	0.279
NCI-H1355	0.795	0.737	0.79	0.722	0.347	0.347	0.359	0.331	0.482	0.416	0.48	0.298	0.737	0.735	0.646	0.68	0.775
NCI-H1395	1.12	1.01	0.978	0.603	0.658	0.726	0.691	0.582	1.16	1.04	0.799	0.499	0.851	0.859	0.806	0.701	0.786
NCI-H1437	1.14	1.17	0.81	0.344	0.527	0.59	0.548	0.347	0.532	0.503	0.507	0.214	1.21	1.11	1.13	1.16	0.571
NCI-H1651	1.16	0.963	0.917	0.886	0.678	0.555	0.626	0.614	0.765	0.781	0.871	0.828	1.25	0.869	0.877	0.86	0.836
NCI-H1666	0.727	0.784	0.807	0.376	0.819	0.725	0.774	0.673	0.871	0.842	0.811	0.593	1.09	0.912	1.07	0.978	0.596
NCI-H1734	0.92	0.874	0.796	0.549	0.46	0.463	0.486	0.351	0.644	0.629	0.618	0.31	0.166	0.182	0.236	0.182	0.193
NCI-H1755	1	0.993	1.03	0.967	0.724	0.721	0.825	0.716	0.834	0.768	0.787	0.469	0.431	0.378	0.395	0.41	0.472
NCI-H1792	0.291	0.358	0.441	0.444	0.405	0.488	0.495	0.54	0.399	0.4	0.506	0.225	0.481	0.418	0.58	0.423	0.331
NCI-H1793	1.06	0.945	0.74	0.684	0.517	0.551	0.449	0.378	0.492	0.489	0.433	0.218	0.22	0.189	0.184	0.264	0.16
NCI-H1915	1.08	1.05	1.11	0.909	0.25	0.248	0.288	0.235	0.58	0.304	0.316	0.118	0.842	0.773	0.877	0.78	0.82

Cell Line	relative viability ([1]; first compound 0.01 µM)	relative viability ([1]; first compound 0.03162 µM)	relative viability ([1]; first compound 0.3162 µM)	relative viability ([1]; first compound 1 µM)	relative viability ([2]; first compound 0.01 µM)	relative viability ([2]; first compound 0.03162 µM)	relative viability ([2]; first compound 0.3162 µM)	relative viability ([2]; first compound 1 µM)	relative viability ([3]; first compound 0.01 µM)	relative viability ([3]; first compound 0.03162 µM)	relative viability ([3]; first compound 0.3162 µM)	relative viability ([3]; first compound 1 µM)	relative viability ([4]; first compound 0.08 µM)	relative viability ([4]; first compound 0.253 µM)	relative viability ([4]; first compound 0.8 µM)	relative viability ([4]; first compound 2.53 µM)	relative viability ([4]; first compound 8 µM)
NCI-H1944	1.16	1.02	1.12	1.13	0.443	0.415	0.434	0.344	0.423	0.481	0.362	0.302	0.826	0.696	0.802	0.741	0.721
NCI-H1975	0.917	0.795	0.746	0.172	0.398	0.371	0.252	0.271	0.339	0.311	0.342	0.165	0.194	0.2	0.206	0.264	0.252
NCI-H1993	0.707	0.738	0.663	0.585	0.671	0.597	0.543	0.391	0.445	0.496	0.474	0.453	0.83	0.865	0.853	1.09	0.589
NCI-H2009	1.24	1.24	1.15	0.676	0.395	0.406	0.446	0.309	0.306	0.287	0.25	0.181	1.08	0.995	1.04	1.14	0.623
NCI-H2023	0.731	0.699	0.626	0.329	0.201	0.234	0.209	0.125	0.541	0.566	0.437	0.131	0.87	0.741	0.788	0.914	0.52
NCI-H2085	0.904	0.857	0.726	0.637	0.621	0.561	0.532	0.508	0.468	0.585	0.595	0.367	0.409	0.419	0.426	0.367	0.44
NCI-H2087	1.07	1.1	0.78	0.141	0.24	0.257	0.262	0.0751	0.241	0.187	0.135	0.119	0.169	0.191	0.153	0.231	0.237
NCI-H2126	0.747	0.744	0.682	0.675	0.524	0.568	0.552	0.495	0.583	0.594	0.554	0.44	0.898	0.899	0.89	1.04	0.86
NCI-H2347	1.08	1.01	0.919	0.793	0.561	0.59	0.571	0.526	0.263	0.256	0.274	0.254	0.77	0.523	0.36	0.824	0.317
NCI-H2405	1.19	0.847	0.865	0.473	0.741	0.744	0.711	0.486	0.664	0.643	0.61	0.299	0.891	0.79	0.632	0.827	0.753
NCI-H3122	0.971	1.03	1.06	0.421	0.508	0.484	0.511	0.193	0.255	0.213	0.225	0.148	0.0606	0.111	0.0925	0.0947	0.102
PC-3 [JPC-3]	0.957	0.974	1.04	1.02	0.802	0.815	0.726	0.756	0.715	0.667	0.767	0.53	0.576	0.708	0.663	0.729	0.761
PC-14	0.927	0.873	0.909	0.848	0.264	0.205	0.189	0.0859	0.681	0.771	0.545	0.0618	0.141	0.139	0.152	0.148	0.0819
RERF-LC-KJ	0.914	0.848	1.03	0.811	0.738	0.701	0.452	0.229	0.865	0.864	0.758	0.423	1.38	1.18	1.18	1.37	1.38
SK-LU-1	1.39	1.2	0.849	0.356	0.602	0.653	0.569	0.501	0.498	0.46	0.416	0.309	0.175	0.203	0.208	0.209	0.175
SK-MES-1	1.08	0.958	1.08	0.953	0.349	0.348	0.361	0.35	0.535	0.607	0.537	0.461	0.786	0.818	0.735	0.662	0.783
SW 1573	0.762	0.664	0.739	0.398	0.471	0.424	0.34	0.137	0.603	0.494	0.37	0.109	0.174	0.598	0.268	0.372	0.216
